Assay results published in PubChem BioAssay (NCI).
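Tested at 5 concentrations; 48 h exposure; 96-well plates; endpoints linearly interpolated, else capped at highest concentration. The concentration for 50% growth inhibition is given as GI50. At the TGI there is no net growth.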

Experiments:
Assay in all cases: NCI anticancer screen, dose series, 48 h
[1] = test system: 786-0 renal
[2] = test system: A549 NSCLC
[3] = test system: ACHN renal
[4] = test system: BT-549 breast
[5] = test system: CAKI-1 renal
[6] = test system: CCRF-CEM leukemia
[7] = test system: COLO 205 colon
[8] = test system: DU-145 prostate
[9] = test system: EKVX NSCLC
[10] = test system: HCT-116 colon
[11] = test system: HCT-15 colon
[12] = test system: HOP-62 NSCLC
[13] = test system: HS 578T breast
[14] = test system: HT29 colon
[15] = test system: IGROV1 ovarian
[16] = test system: K-562 leukemia
[17] = test system: KM12 colon
[18] = test system: LOX IMVI melanoma
[19] = test system: M14 melanoma
[20] = test system: MCF7 breast
[21] = test system: MDA-MB-231 breast
[22] = test system: MDA-MB-435
[23] = test system: MOLT-4 leukemia
[24] = test system: NCI-H226 lung
[25] = test system: NCI-H23 lung
[26] = test system: NCI-H460 lung
[27] = test system: NCI-H522 lung
[28] = test system: NCI/ADR-RES ovarian
[29] = test system: OVCAR-3 ovarian
[30] = test system: OVCAR-4 ovarian
[31] = test system: OVCAR-5 ovarian
[32] = test system: OVCAR-8 ovarian
[33] = test system: PC-3 prostate
[34] = test system: RPMI-8226 leukemia
[35] = test system: RXF 393 renal
[36] = test system: SF-268 CNS
[37] = test system: SF-295 CNS
[38] = test system: SK-MEL-2 melanoma
[39] = test system: SK-MEL-28 melanoma
[40] = test system: SK-MEL-5 melanoma
[41] = test system: SK-OV-3 ovarian
[42] = test system: SN12C renal
[43] = test system: SNB-19 CNS
[44] = test system: SNB-75 CNS
[45] = test system: SW-620 colon
[46] = test system: T-47D breast
[47] = test system: TK-10 renal
[48] = test system: U251 CNS
[49] = test system: UACC-257 melanoma
[50] = test system: UACC-62 melanoma
[51] = test system: UO-31 renal

Work on `COc1cc([C@@H]2C[C@H]2c2cc(SC)n[nH]2)cc(OC)c1OC` yielded a GI50 [1] of 18 µM, a TGI [1] of 44.6 µM and a GI50 [2] of 25.9 µM. It also gave a TGI [2] of over 100 µM, a GI50 [3] of 30.3 µM and a TGI [3] of over 100 µM. The GI50 [4] was 16.2 µM, the TGI [4] was 42 µM and the GI50 [5] was 15.6 µM. It also gave a TGI [5] of 37.9 µM, a GI50 [6] of 19.4 µM and a TGI [6] of over 100 µM. The GI50 [7] was 20.5 µM, the TGI [7] was 70 µM and the GI50 [8] was 17.7 µM. The TGI [8] was over 100 µM, the GI50 [9] was 14.9 µM and the TGI [9] was 40.2 µM. It also gave a GI50 [10] of 23.6 µM, a TGI [10] of 85.7 µM and a GI50 [11] of 22.8 µM. The TGI [11] was 80.2 µM, the GI50 [12] was 5.75 µM and the TGI [12] was 28.8 µM. The GI50 [13] was 15.1 µM, the TGI [13] was 45.2 µM and the GI50 [14] was 26.9 µM. For the same compound, the TGI [14] was over 100 µM, the GI50 [15] was 18.3 µM and the TGI [15] was over 100 µM. It also gave a GI50 [16] of 21 µM, a TGI [16] of over 100 µM and a GI50 [17] of 15.2 µM. It also gave a TGI [17] of 32.8 µM, a GI50 [18] of 93.9 µM and a TGI [18] of over 100 µM. It also gave a GI50 [19] of 13.9 µM, a TGI [19] of 28.5 µM and a GI50 [20] of 18.8 µM. For the same compound, the TGI [20] was 41.2 µM, the GI50 [21] was 12.1 µM and the TGI [21] was 33.2 µM. It also gave a GI50 [22] of 11.2 µM, a TGI [22] of 26.5 µM and a GI50 [23] of 20.3 µM. It also gave a TGI [23] of over 100 µM, a GI50 [24] of 16.9 µM and a TGI [24] of 70.4 µM. For the same compound, the GI50 [25] was 21.1 µM, the TGI [25] was 58 µM and the GI50 [26] was 17.7 µM. The TGI [26] was 41.7 µM, the GI50 [27] was 13.8 µM and the TGI [27] was 37.3 µM. The GI50 [28] was 17.6 µM, the TGI [28] was 49.3 µM and the GI50 [29] was 13.2 µM. The TGI [29] was 30.5 µM, the GI50 [30] was 26.2 µM and the TGI [30] was over 100 µM. It also gave a GI50 [31] of 37.9 µM, a TGI [31] of 90.1 µM and a GI50 [32] of 14 µM. The TGI [32] was 45.1 µM, the GI50 [33] was 18.1 µM and the TGI [33] was 57.2 µM. For the same compound, the GI50 [34] was 12.6 µM, the TGI [34] was 37.2 µM and the GI50 [35] was 0.0483 µM. For the same compound, the TGI [35] was 5.7 µM, the GI50 [36] was 15.1 µM and the TGI [36] was 50 µM. It also gave a GI50 [37] of 10.9 µM, a TGI [37] of 28.5 µM and a GI50 [38] of 25.6 µM. The TGI [38] was 67.2 µM, the GI50 [39] was 23.5 µM and the TGI [39] was over 100 µM. The GI50 [40] was 14.7 µM, the TGI [40] was 29 µM and the GI50 [41] was 17.4 µM. For the same compound, the TGI [41] was 65.2 µM, the GI50 [42] was 8.98 µM and the TGI [42] was 31.8 µM. The GI50 [43] was 35 µM, the TGI [43] was over 100 µM and the GI50 [44] was 26.4 µM. For the same compound, the TGI [44] was over 100 µM, the GI50 [45] was 26.9 µM and the TGI [45] was over 100 µM. It also gave a GI50 [46] of 16.5 µM, a TGI [46] of over 100 µM and a GI50 [47] of 22.5 µM. For the same compound, the TGI [47] was 52.5 µM, the GI50 [48] was 79.3 µM and the TGI [48] was over 100 µM. The GI50 [49] was 17.7 µM, the TGI [49] was 50.7 µM and the GI50 [50] was 14 µM. For the same compound, the TGI [50] was 43.6 µM, the GI50 [51] was 23 µM and the TGI [51] was over 100 µM.
